Laboratory results reported in article PMC11470414, “In vitro assessment of Dracocephalum lindbergii for growth inhibition, apoptosis induction, and cytokine modulation against Leishmaniamajor” (Heliyon, 2024).
Values after ≈ are worked out from the molar mass of the structure shown. Where two headings read alike, the source gives them in different places. Each block holds one compound with its values, some of them ahead of it.

Experiments:
[1] = system: macrophage cell line (THP-1); assay: Toxicity on macrophages (MTT, CC50); type: cell-based
Procedure: (§1) The promastigote form of L. major (MRHO/IR/75/ER), the national standard isolate, was obtained from the Pasteur Institute of Iran and cultured at 25 °C in RPMI-1640 medium containing 10 % heat-inactivated FBS and 1 % penicillin/streptomycin. The THP-1 macrophage cell line, provided by the Kerman Leishmaniasis Research Center, was grown in Dulbecco's Modified Eagle Medium (DMEM) supplemented with 10 % FBS and 0.5 % antibiotics (Sigma, Poole, UK), and incubated at 37 °C with 5 % CO₂ [21].
(§2) To assess the impact of the D. lindbergii fraction on L. major promastigotes, amastigotes, and macrophages, cell viability was determined using the 3-(4,5-dimethylthiazol-2-yl)-2,5-diphenyl tetrazolium bromide (MTT). L. major in the logarithmic growth phase (1 × 10⁶) was plated in a 96-well microplate using RPMI-1640 medium supplemented with 10 % FBS and treated with different concentrations of the samples. The plates were then incubated. Subsequently, 10 μL of MTT (Sigma Chemical Co., St. Louis, MO) at a concentration of 5 mg/mL was added to each well. After incubation, DMSO was added to stop the reactions, and the optical density (OD) absorbance of the samples was measured at 570 nm using an ELISA plate reader (BioTek Company, USA). The results were analyzed by calculating the inhibition percentage through linear regression.

[2] = Toxicity on macrophages (MTT, CC50); type: cell-based; details: human, THP-1 macrophage cell line
Procedure: as §1, §2

L. major amastigotes = assay: Apoptotic profile by flow cytometry (PE-Annexin V / 7-AAD); type: cell-based, Leishmania major; details: 100 μg/mL, vs negative control P < 0.001
Procedure: Apoptosis in L. major amastigotes was evaluated using flow cytometry with the BD Annexin V/PE Apoptosis Detection Kit (Fisher Scientific). […] After treatment, the parasites were washed with PBS and incubated in the dark at 25 °C with 5 μL of PE-Annexin V and 7 μL of 7-AAD for 15 min. The proportion of apoptotic parasites was then evaluated using FlowJo software.

[3] = system: L. major intramacrophage amastigotes; assay: Anti-amastigote activity: counting Leishman bodies in 100 Giemsa-stained macrophages; type: cell-based, Leishmania major; details: for IC50: Leishmania major, Macrophage
Procedure: To assess the leishmanicidal effect on L. major intramacrophage amastigotes, macrophages (10⁷ cells) were cultured for 24 h. Subsequently, 200 μL of metacyclic promastigotes were introduced to the macrophages at a 10:1 ratio. […] The cells were washed with 50 μL PBS to eliminate free parasites, fixed with methanol, and stained using Giemsa. The IC₅₀, defined as the concentration required to inhibit 50 % of the leishmanial organisms, was determined by counting Leishman bodies (amastigotes) in 100 macrophages under an optical microscope. All experiments were performed in triplicate.
To evaluate the leishmanicidal effects on L. major intramacrophage amastigotes, macrophages (1 × 10⁷ cells) were cultured for 24 h. Following this, 200 μL of metacyclic promastigotes were added to the macrophages at a 10:1 ratio. […] The cells were then washed with 50 μL PBS to remove any free parasites, fixed in methanol, and stained with Giemsa. The IC₅₀, or the concentration that inhibits 50 % of the leishmanial organisms, was assessed by counting Leishman bodies (amastigotes) in 100 macrophages under an optical microscope. Each experiment was conducted in triplicate, including negative controls (macrophages and parasites without treatment) and positive controls (macrophages and parasites treated with a known effective drug) for comparison.

L. major promastigotes = assay: Anti-promastigote activity (MTT, IC50); type: cell-based, Leishmania major; details: for IC50: Leishmania major
Procedure: as §2
Drug susceptibility assays were conducted using promastigotes in the logarithmic growth phase. A volume of 90 μL of cultured L. major promastigotes (1 × 10⁶ cells/mL) was transferred to each well of a 96-well microplate. […] The reactions were stopped, ELISA readings were taken, and the IC₅₀ (50 % inhibitory concentration) was calculated according to established protocols.

[4] = DPPH radical-scavenging antioxidant assay; details: DPPH method, 517 nm
Procedure: The scavenging effect on 2,2-diphenyl-1-picrylhydrazyl (DPPH) free radicals was determined based on the reduction of DPPH as a stable free radical. The optical densities were measured at a wavelength of 517 nm. The elimination of free radicals was calculated using the following formula:= (absorbance of control-absorbance of the sample) / (absorbance of control) × 100.

L. major = system: L. major; design: method as in PMID 33531168; details: after 16 h of incubation; control 14 %; cited from earlier work

- IC50 ([3]; 24 h, read-out: Amastigote (24 h) IC50 ± SD): 134 ± 18.6 µg/mL (≈ 145 µM)
- IC50 ([3]; 48 h, read-out: Amastigote (48h) IC50 ± SD): 129 ± 14.2 µg/mL (≈ 139 µM)
- IC50 ([3]; 72 h, read-out: Amastigote (72h) IC50 ± SD): 101 ± 18.3 µg/mL (≈ 110 µM)
- IC50 (L. major promastigotes; 24 h, read-out: Promastigote (24 h) IC50 ± SD): 308 ± 22 µg/mL (≈ 333 µM)
- IC50 (L. major promastigotes; 48 h, read-out: Promastigote (48h) IC50 ± SD): 294 ± 15.3 µg/mL (≈ 318 µM)
- IC50 (L. major promastigotes; 72 h, read-out: Promastigote (72h) IC50 ± SD): 264 ± 20.7 µg/mL (≈ 285 µM)
Compound: C[C@@H]1[C@H](O)[C@@H](C)/C=C/C=C/C=C/C=C/C=C/C=C/C=C/[C@H](O[C@@H]2O[C@H](C)[C@@H](O)[C@H](N)[C@@H]2O)C[C@@H]2O[C@](O)(C[C@@H](O)C[C@@H](O)[C@H](O)CC[C@@H](O)C[C@@H](O)CC(=O)O[C@H]1C)C[C@H](O)[C@H]2C(=O)O [Amphotericin B]
- SI= CC50 Macrophages/IC50 Amastigotes (Selectivity Index) ([1]; 24 h): 5.93
- SI = CC50Macrophages/IC50Amastigotes (Selectivity Index) ([1]; 72 h): 7.40
- CC50 at 24 h ([2]; 24 h): 792 ± 28.6 µg/mL (≈ 857 µM)
- CC50 at 48 h ([2]; 48 h): 772 ± 24.6 µg/mL (≈ 836 µM)
- CC50 at 72 h ([2]; 72 h): 749 ± 18.6 µg/mL (≈ 810 µM)
- induction of apoptosis in intra-macrophage amastigotes (L. major amastigotes): significant induction of apoptosis
- average number of intramacrophage amastigotes (Mean ± SD) ([3]; 24 h, 12.5 μg/mL): 34.2 ± 3.6
- average number of intramacrophage amastigotes (Mean ± SD) ([3]; 24 h, 25 μg/mL): 25.3 ± 4.2
- average number of intramacrophage amastigotes (Mean ± SD) ([3]; 24 h, 50 μg/mL): 20.4 ± 1.8
- average number of intramacrophage amastigotes (Mean ± SD) ([3]; 24 h, 100 μg/mL): 13.6 ± 2.6
- average number of intramacrophage amastigotes (Mean ± SD) ([3]; 24 h, 200 μg/mL): 3.6 ± 0.4
- average number of intramacrophage amastigotes (Mean ± SD) ([3]; 24 h, 400 μg/mL): 0.0 ± 0.0
- average number of intramacrophage amastigotes (Mean ± SD) ([3]; 48 h, 12.5 μg/mL): 41.4 ± 3.0
- average number of intramacrophage amastigotes (Mean ± SD) ([3]; 48 h, 25 μg/mL): 30.1 ± 2.2
- average number of intramacrophage amastigotes (Mean ± SD) ([3]; 48 h, 50 μg/mL): 21.6 ± 2.4
- average number of intramacrophage amastigotes (Mean ± SD) ([3]; 48 h, 100 μg/mL): 10.1 ± 1.9
- average number of intramacrophage amastigotes (Mean ± SD) ([3]; 48 h, 200 μg/mL): 2.6 ± 0.3
- average number of intramacrophage amastigotes (Mean ± SD) ([3]; 48 h, 400 μg/mL): 0.0 ± 0.0
- average number of intramacrophage amastigotes (Mean ± SD) ([3]; 72 h, 12.5 μg/mL): 50.4 ± 4.8
- average number of intramacrophage amastigotes (Mean ± SD) ([3]; 72 h, 25 μg/mL): 42.3 ± 5.2
- average number of intramacrophage amastigotes (Mean ± SD) ([3]; 72 h, 50 μg/mL): 33.4 ± 3.0
- average number of intramacrophage amastigotes (Mean ± SD) ([3]; 72 h, 100 μg/mL): 20.4 ± 2.4
- average number of intramacrophage amastigotes (Mean ± SD) ([3]; 72 h, 200 μg/mL): 10.3 ± 0.8
- average number of intramacrophage amastigotes (Mean ± SD) ([3]; 72 h, 400 μg/mL): 0.0 ± 0.0

Compound: COc1ccc(O)c(C(C)(C)C)c1 [BHA, butylated hydroxyanisole]
- IC50 of DPPH radical scavenging [4]: 249.3 µg/mL

Compound: COc1cc(/C=C/C(=O)CC(=O)/C=C/c2ccc(O)c(OC)c2)ccc1O [curcumin]
- maximum accumulation of S-phase cells (L. major): about 33%

Compound: meglumine antimoniate [MAT]
- induction of apoptosis in intra-macrophage amastigotes (L. major amastigotes): significant induction of apoptosis
- Amastigote (24 h) IC50 ± SD ([3]; 24 h): 127.3 ± 14.9
- average number of intramacrophage amastigotes (Mean ± SD) ([3]; 24 h, 12.5 μg/mL): 31.1 ± 4.2
- average number of intramacrophage amastigotes (Mean ± SD) ([3]; 24 h, 25 μg/mL): 22.3 ± 3.1
- average number of intramacrophage amastigotes (Mean ± SD) ([3]; 24 h, 50 μg/mL): 18.6 ± 2.5
- average number of intramacrophage amastigotes (Mean ± SD) ([3]; 24 h, 100 μg/mL): 11.4 ± 2.2
- average number of intramacrophage amastigotes (Mean ± SD) ([3]; 24 h, 200 μg/mL): 2.1 ± 0.1
- average number of intramacrophage amastigotes (Mean ± SD) ([3]; 24 h, 400 μg/mL): 0.0 ± 0.0
- Amastigote (48h) IC50 ± SD ([3]; 48 h): 112.6 ± 9.5
- average number of intramacrophage amastigotes (Mean ± SD) ([3]; 48 h, 12.5 μg/mL): 39.6 ± 1.1
- average number of intramacrophage amastigotes (Mean ± SD) ([3]; 48 h, 25 μg/mL): 27.6 ± 1.8
- average number of intramacrophage amastigotes (Mean ± SD) ([3]; 48 h, 50 μg/mL): 18.4 ± 2.0
- average number of intramacrophage amastigotes (Mean ± SD) ([3]; 48 h, 100 μg/mL): 8.6 ± 0.9
- average number of intramacrophage amastigotes (Mean ± SD) ([3]; 48 h, 200 μg/mL): 2.2 ± 0.4
- average number of intramacrophage amastigotes (Mean ± SD) ([3]; 48 h, 400 μg/mL): 0.0 ± 0.0
- Amastigote (72h) IC50 ± SD ([3]; 72 h): 93.6 ± 15.2
- average number of intramacrophage amastigotes (Mean ± SD) ([3]; 72 h, 12.5 μg/mL): 49.3 ± 5.7
- average number of intramacrophage amastigotes (Mean ± SD) ([3]; 72 h, 25 μg/mL): 40.3 ± 6.4
- average number of intramacrophage amastigotes (Mean ± SD) ([3]; 72 h, 50 μg/mL): 31.2 ± 4.1
- average number of intramacrophage amastigotes (Mean ± SD) ([3]; 72 h, 100 μg/mL): 18.4 ± 2.5
- average number of intramacrophage amastigotes (Mean ± SD) ([3]; 72 h, 200 μg/mL): 8.6 ± 0.2
- average number of intramacrophage amastigotes (Mean ± SD) ([3]; 72 h, 400 μg/mL): 0.0 ± 0.0
- Promastigote (24 h) IC50 ± SD (L. major promastigotes; 24 h): 301.8 ± 24.3
- Promastigote (48h) IC50 ± SD (L. major promastigotes; 48 h): 286.2 ± 17.3
- Promastigote (72h) IC50 ± SD (L. major promastigotes; 72 h): 251.6 ± 28.4
